Tests used:
Format in all cases: in vivo
[1] = tested on: Triticum aestivum (TRZAW, winter wheat, variety ‘Hereward’); assay: Test 1A glasshouse assay, post-emergence herbicidal activity; conditions: 312 h, 13 days after application, read-out: Post-Emergence Herbicidal Activity (% Phytotoxicity) TRZAW
Procedure: (§1) Seeds of a variety of test species are sown in standard soil (usually sandy soil) in pots. After cultivation for one day (pre-emergence) or after 8 days cultivation (post-emergence) under controlled conditions in a glasshouse (at 24/16° C., day/night; 14 hours light; 65% humidity), the plants are sprayed with an aqueous spray solution derived from the formulation of the technical active ingredient (compound) in acetone/water (50:50) solution containing 0.5% Tween 20 (polyoxyethylene sorbitan monolaurate, CAS RN 9005-64-5). The test plants are then grown under controlled conditions in a glasshouse (at 24/16° C., day/night; 14 hours light; 65% humidity) and watered twice daily. 13 days after application of the test compounds, for pre- and post-emergence, the test is evaluated visually for percentage phytotoxicity to each plant (where 100%=total damage to plant; 0%=no damage to plant).
(§2) Lolium perenne (LOLPE), Triticum aestivum (TRZAW, winter wheat, variety ‘Hereward’), Alopecurus myosuroides (ALOMY), Echinochloa crus-galli (ECHCG), and Avena fatua (AVEFA). All these are grassy monocotyledonous weeds and/or (for wheat) grassy crops.

Lolium perenne (LOLPE) [2] = assay: as above; conditions: 312 h, 13 days after application, read-out: Post-Emergence Herbicidal Activity (% Phytotoxicity) LOLPE
Procedure: as §1, §2

[3] = tested on: Echinochloa crus-galli (ECHCG); assay: Test 1A glasshouse assay, pre-emergence herbicidal activity; conditions: 312 h, 13 days after application, read-out: Pre-Emergence Herbicidal Activity (% Phytotoxicity) ECHCG
Procedure: as §1
Alopecurus myosuroides (ALOMY), Setaria faberi (SETFA), Echinochloa crus-galli (ECHCG), Amaranthus retroflexus (AMARE), and Abutilon theophasti Medik. (ABUTH, common English name “velvetleaf”). Of these, Alopecurus myosuroides (ALOMY), Setaria faberi (SETFA), and Echinochloa crus-galli (ECHCG) are grassy monocotyledonous weeds. […]

[4] = tested on: Echinochloa crus-galli (ECHCG); assay: Biological Example 3 (Test 2 glasshouse assay), post-emergence herbicidal activity
Procedure: (§3) Seeds of a variety of monocotyledonous and dicotyledonous test plants are sown in standard soil in pots. The plants are cultivated for one day (for pre-emergence) or for about 12 days (range=10-13 days) (for post-emergence) under controlled conditions in a glasshouse (warm climate species at 24/18° C., cool climate species at 20/16° C., both at day/night; 16 hours light; 65% humidity).
(§4) An “instant formulation”, known as the “IF50”, containing 50 g/litre (i.e. 5% w/v) of the “technical” (i.e. unformulated) active ingredient is prepared by dissolving the active ingredient in a mixture of organic solvents and emulsifier, details of which are provided in the Table below. This IF50 is then mixed with a small, variable amount of acetone to aid dissolution, before addition of a 0.2% v/v aqueous solution of the adjuvant X-77 (which is a mixture of alkyl aryl polyoxyethylene glycols and free fatty acids in isopropanol, CAS Registry number 11097-66-8), as the aqueous diluent, to form an aqueous spray solution which contains a predetermined concentration of the active ingredient (which varies depending on the application rate of the active ingredient to the plants) and 0.2% v/v of the adjuvant X-77. This aqueous spray solution is then sprayed onto the plants, after one day's cultivation (for pre-emergence) or after about 12 days' cultivation (for post-emergence).
(§5) The test plants are then grown on, in a glasshouse (greenhouse) under controlled conditions (at either 24/18° C. or 20/16° C. (day/night) as mentioned above; 16 hours light; 65% humidity) and are watered twice daily. Either 15 days after application of the test compound (15 DAA) (for post-emergence), or 20 days after application of the test compound (20 DAA) (for pre-emergence), the test plants are evaluated visually, and an assessed percentage phytotoxicity score is given for each compound application on each plant species (where 100%=total damage to plant; 0%=no damage to plant).
(§6) Cool climate crop plants: Triticum aestivum (TRZAW, winter wheat), Brassica napus (BRSNN, rape, also called oilseed rape or rapeseed), Beta vulgaris (BEAVA, sugar beet). Warm climate crop plants: Glycine max (GLXMA, soybean). Cool climate (“cool season”) grassy monocotyledonous weeds: Alopecurus myosuroides (ALOMY), Avena fatua (AVEFA), Lolium perenne (LOLPE). Warm climate (“warm season”) grassy monocotyledonous weeds: Setaria faberi (SETFA), SORVU (Sorghum bicolor (L.) Moench ssp. Bicolor, or Sorghum vulgare Pers.), Digitaria sanguinalis (DIGSA), Echinochloa crus-galli (ECHCG), and Brachiaria plantaginea (BRAPL).

Lolium perenne (LOLPE) [5] = assay: as above
Procedure: as §3, §4, §5, §6

[6] = tested on: Brassica napus (BRSNN, rape); assay: as above
Procedure: as §3, §4, §5, §6

Setaria faberi (SETFA) = assay: as above
Procedure: as §3, §4, §5, §6

[7] = tested on: SORVU (Sorghum bicolor (L.) Moench ssp. Bicolor, or Sorghum vulgare Pers.); assay: as above
Procedure: as §3, §4, §5, §6

[8] = tested on: Triticum aestivum (TRZAW, winter wheat); assay: as above
Procedure: as §3, §4, §5, §6

[9] = tested on: Beta vulgaris (BEAVA, sugar beet); assay: as above
Procedure: as §3, §4, §5, §6

[10] = tested on: Brachiaria plantaginea (BRAPL); assay: as above
Procedure: as §3, §4, §5, §6

[11] = tested on: Glycine max (GLXMA, soybean); assay: as above
Procedure: as §3, §4, §5, §6

[12] = tested on: Digitaria sanguinalis (DIGSA); assay: as above
Procedure: as §3, §4, §5, §6

[13] = tested on: Alopecurus myosuroides (ALOMY); assay: as above
Procedure: as §3, §4, §5, §6

Row | Structure (SMILES) | inhibition at 250 g/ha [3] [%] | Post-Emergence Herbicidal Activity (Percentage Phytotoxicity) ECHCG ([4]; 8 g/ha (rate by row order)) [%] | Post-Emergence Herbicidal Activity (Percentage Phytotoxicity) ECHCG ([4]; 30 g/ha (rate by row order)) [%] | Post-Emergence Herbicidal Activity (Percentage Phytotoxicity) ECHCG ([4]; 125 g/ha (rate by row order)) [%] | Post-Emergence Herbicidal Activity (Percentage Phytotoxicity) LOLPE (Lolium perenne (LOLPE) [5]; 8 g/ha) [%] | Post-Emergence Herbicidal Activity (Percentage Phytotoxicity) LOLPE (Lolium perenne (LOLPE) [5]; 30 g/ha) [%] | Post-Emergence Herbicidal Activity (Percentage Phytotoxicity) LOLPE (Lolium perenne (LOLPE) [5]; 125 g/ha) [%] | Post-Emergence Herbicidal Activity (Percentage Phytotoxicity) BRSNN ([6]; 8 g/ha) [%] | Post-Emergence Herbicidal Activity (Percentage Phytotoxicity) BRSNN ([6]; 30 g/ha) [%] | Post-Emergence Herbicidal Activity (Percentage Phytotoxicity) BRSNN ([6]; 125 g/ha) [%] | Post-Emergence Herbicidal Activity (Percentage Phytotoxicity) SETFA (Setaria faberi (SETFA); 8 g/ha (rate by row order)) [%] | Post-Emergence Herbicidal Activity (Percentage Phytotoxicity) SETFA (Setaria faberi (SETFA); 30 g/ha (rate by row order)) [%] | Post-Emergence Herbicidal Activity (Percentage Phytotoxicity) SETFA (Setaria faberi (SETFA); 125 g/ha (rate by row order)) [%] | Post-Emergence Herbicidal Activity (Percentage Phytotoxicity) SORVU ([7]; 8 g/ha (rate by row order)) [%] | Post-Emergence Herbicidal Activity (Percentage Phytotoxicity) SORVU ([7]; 30 g/ha (rate by row order)) [%] | Post-Emergence Herbicidal Activity (Percentage Phytotoxicity) SORVU ([7]; 125 g/ha (rate by row order)) [%] | Post-Emergence Herbicidal Activity (Percentage Phytotoxicity) TRZAW ([8]; 8 g/ha) [%] | Post-Emergence Herbicidal Activity (Percentage Phytotoxicity) TRZAW ([8]; 30 g/ha) [%] | Post-Emergence Herbicidal Activity (Percentage Phytotoxicity) TRZAW ([8]; 125 g/ha) [%] | Post-Emergence Herbicidal Activity (Percentage Phytotoxicity) BEAVA ([9]; 8 g/ha) [%] | also measured
1 | CC#Cc1cc(C)c(C2C(=O)C(Cc3ccccn3)N(C)C2=O)c(C)c1 (stereo not shown) [Compound A50, 3-(2,6-dimethyl-4-prop-1-ynyl-phenyl)-1-methyl-5-(2-pyridylmethyl)pyrrolidine-2,4-dione] | 90 | – | – | – | – | – | – | – | – | – | – | – | – | – | – | – | – | – | – | – | inhibition at 15.625 g/ha ([1]; 15.625 g/ha): 30%; inhibition at 62.5 g/ha ([1]; 62.5 g/ha): 70%; inhibition at 250 g/ha ([1]; 250 g/ha): 80%; inhibition at 15.625 g/ha (Lolium perenne (LOLPE) [2]; 15.625 g/ha): 40%; inhibition at 62.5 g/ha (Lolium perenne (LOLPE) [2]; 62.5 g/ha): 70%; inhibition at 250 g/ha (Lolium perenne (LOLPE) [2]; 250 g/ha): 100%; inhibition at 62.5 g/ha ([3]; 62.5 g/ha): 70%
2 | CC#Cc1cc(C)c(-c2c(OC(=O)C(C)(C)C)n(C)n(C)c2=O)c(C)c1 [Compound P1] | 100 | 20 | 70 | 100 | 30 | 50 | 80 | 0 | 80 | 80 | 20 | 90 | 100 | 50 | 60 | 80 | 0 | 0 | 70 | 30 | Post-Emergence Herbicidal Activity (Percentage Phytotoxicity) BEAVA ([9]; 30 g/ha): 10%; Post-Emergence Herbicidal Activity (Percentage Phytotoxicity) BEAVA ([9]; 125 g/ha): 40%; Post-Emergence Herbicidal Activity (Percentage Phytotoxicity) BRAPL ([10]; 8 g/ha (rate by row order)): 60%; Post-Emergence Herbicidal Activity (Percentage Phytotoxicity) BRAPL ([10]; 30 g/ha (rate by row order)): 70%; Post-Emergence Herbicidal Activity (Percentage Phytotoxicity) BRAPL ([10]; 125 g/ha (rate by row order)): 100%; Post-Emergence Herbicidal Activity (Percentage Phytotoxicity) GLXMA ([11]; 8 g/ha): 10%; Post-Emergence Herbicidal Activity (Percentage Phytotoxicity) GLXMA ([11]; 30 g/ha): 30%; Post-Emergence Herbicidal Activity (Percentage Phytotoxicity) GLXMA ([11]; 125 g/ha): 40%; Post-Emergence Herbicidal Activity (Percentage Phytotoxicity) DIGSA ([12]; 8 g/ha (rate by row order)): 80%; Post-Emergence Herbicidal Activity (Percentage Phytotoxicity) DIGSA ([12]; 30 g/ha (rate by row order)): 90%; Post-Emergence Herbicidal Activity (Percentage Phytotoxicity) DIGSA ([12]; 125 g/ha (rate by row order)): 100%; Post-Emergence Herbicidal Activity (Percentage Phytotoxicity) ALOMY ([13]; 8 g/ha): 40%; Post-Emergence Herbicidal Activity (Percentage Phytotoxicity) ALOMY ([13]; 30 g/ha): 60%; Post-Emergence Herbicidal Activity (Percentage Phytotoxicity) ALOMY ([13]; 125 g/ha): 70%
3 | CC#Cc1cc(C)c(-c2c(OC(=O)C(C)(C)C)n3n(c2=O)CCOCC3)c(C)c1 [Compound P4] | 100 | 60 | 90 | 100 | 30 | 40 | 50 | 70 | 80 | 80 | 70 | 80 | 90 | 70 | 80 | 100 | 10 | 40 | 80 | 30 | Post-Emergence Herbicidal Activity (Percentage Phytotoxicity) BEAVA ([9]; 30 g/ha): 40%; Post-Emergence Herbicidal Activity (Percentage Phytotoxicity) BEAVA ([9]; 125 g/ha): 50%; Post-Emergence Herbicidal Activity (Percentage Phytotoxicity) BRAPL ([10]; 8 g/ha (rate by row order)): 90%; Post-Emergence Herbicidal Activity (Percentage Phytotoxicity) BRAPL ([10]; 30 g/ha (rate by row order)): 90%; Post-Emergence Herbicidal Activity (Percentage Phytotoxicity) BRAPL ([10]; 125 g/ha (rate by row order)): 100%; Post-Emergence Herbicidal Activity (Percentage Phytotoxicity) GLXMA ([11]; 8 g/ha): 50%; Post-Emergence Herbicidal Activity (Percentage Phytotoxicity) GLXMA ([11]; 30 g/ha): 60%; Post-Emergence Herbicidal Activity (Percentage Phytotoxicity) GLXMA ([11]; 125 g/ha): 70%; Post-Emergence Herbicidal Activity (Percentage Phytotoxicity) DIGSA ([12]; 8 g/ha (rate by row order)): 80%; Post-Emergence Herbicidal Activity (Percentage Phytotoxicity) DIGSA ([12]; 30 g/ha (rate by row order)): 90%; Post-Emergence Herbicidal Activity (Percentage Phytotoxicity) DIGSA ([12]; 125 g/ha (rate by row order)): 90%; Post-Emergence Herbicidal Activity (Percentage Phytotoxicity) ALOMY ([13]; 8 g/ha): 20%; Post-Emergence Herbicidal Activity (Percentage Phytotoxicity) ALOMY ([13]; 30 g/ha): 60%; Post-Emergence Herbicidal Activity (Percentage Phytotoxicity) ALOMY ([13]; 125 g/ha): 70%

— patent US20160219881A1, “HERBICIDALLY ACTIVE 2-HALOGEN-4-ALKYNYL-PHENYL-PYRAZOLIDINE-DIONE OR PYRROLIDINE-DIONE DERIVATIVES” (SYNGENTA LIMITED, priority 2013, published 2016)
